Measured values from patent US11479604B2, “Immunomodulatory peptides and methods for modulating the immune system in a subject” (Recepta Biopharma S.A., priority 2017, dated 2022).
Positions of bridges follow the written chain, without caps; N, C: chain ends. No end group written: not given here.

Assays:
[1] = tested on: B16F10-Nex2 melanoma cells; test: Syngeneic metastatic melanoma model, lung nodule count; format: in vivo, C57BL/6 mice; settings: for antitumor activity (pulmonary nodules): alone, Rb9 300 μg 5 consecutive days, Imiquimod 50 μg 3 alternate days, CpG and Poly (I:C) two alternate days; for activity against metastatic melanoma of scramble peptides: 300 μg (10 mg/kg) i.p., alternate days, 5 doses, lungs after 14 days
Experimental: Male C57BL/6 mice, 6 to 8-week-old were obtained from the Center for Development of Experimental Models (CEDEME), Federal University of Sao Paulo (UNIFESP). For the in vivo metastatic model, C57BL/6 mice received one intravenous (i.v.) injection of 2×10^5 viable B16-F10-Next melanoma cells in 100 μL. […] The control group received 100 μL PBS. Twenty-two days later, mice (minimum n=3 per group) had their lungs harvested, and the number of macroscopic melanotic nodules were counted. The Ethical Committee of Federal University of São Paulo, Project no. 1234, 2011, approved all experiments with animals, according to International guidelines. For the subcutaneous model, mice were injected with 5×10^5 tumor cells suspended in 100 μL of PBS in the right flank via the subcutaneous route. The peptide (300 μg) was solubilized in 10 μL of distilled H2O and 90 μL of PBS and injected per mouse via the intraperitoneal route. The administration of the peptide was performed in 5 alternate days initiating one day after tumor challenge. Tumor longitudinal diameter (D) and transverse diameter (d) were measured every 2 days until the tumor volume reached 3,000 mm3. Animals were sacrificed when the allowed volume was reached. Volume was calculated using the formula v=Dd^2×0.52. Tumor Cell Growth In Vitro and In Vivo Details of the in vitro tumor cell growth, cytotoxicity tests, determination of viable cells and in vivo protection experiments with B16F10 cells in a mouse metastatic model are described in Polonelli et al. (PLoS One. 3(6):e2371, 2008) and Dobroff et al. (Transl. Onc., 3: 204-217, 2010).
6 to 8 Week-old C57BL/6 mice (n=5, per group) were intravenously challenged with 1×10^5 of syngeneic B16F10-Nex2 viable cells in 0.1 mL of RPMI medium without FBS, and treated on the next day with intraperitoneal doses of 300 μg (10 mg/kg) each, of Scr1, Scr2, Scr3 or Scr4 peptide or with the control vehicle (PBS) in alternate days, total of 5 doses. After 14 days, mice were euthanized, and lungs were harvested and assessed for metastatic colonization. The number of metastatic lesions was quantified using a stereo microscope (Nikon, Tokyo). The percentage of the tumor area/total area was also quantified by ImageJ software.
B16F10-Nex2 tumor cells (2×10^5) in RPMI (100 μl) were injected in both animal groups in the tail veins on day 0. Animals were sacrificed on day 22, or 10 days after the last administration of the peptide, and their lungs were examined for dark melanotic nodules.
C57Bl6 mice were intravenously challenged with 4×10^5 syngeneic B16F10-Nex2 cells in 0.1 ml of RPMI without FBS.
Mice were injected with 5×10^5 B16F10-Nex2 cells i.v. suspended in 100 μl PBS. […] Imiquimod at 50 μg/100 μl was injected i.p. in 3 alternate days; CpG ODN 1585, i.p., in two alternate days; and Poly (I:C), i.p., in two alternate days. After 15 days of tumor challenge, the animals were sacrificed, the lungs were removed and the pulmonary nodules were counted.

[2] = tested on: splenocytes; test: Splenocyte cytokine production in melanoma-bearing treated mice (ELISA); format: in vivo; settings: 300 μg i.p. 5 consecutive days
Experimental: Mice were challenged with 5×10^5 B16F10-Nex2 cells via the i.v. route. […] Peptides at 300 μg solubilized in 10 μl distilled H2O and 90 μl of PBS were injected via i.p. route per animal, for 5 consecutive days initiating one day after tumor cell challenge. Seventeen days after tumor challenge mice were sacrificed and spleens were removed. Splenocytes after incubation in hemolysis buffer were suspended in R10 medium and plated in 6-well plates and 10^6 cells/well. Cells were incubated for 72 h with or without tumor cell lysate (from 10^5 B16F10-Nex2 cells) in triplicate. The supernatants were collected, and cytokines measured by ELISA (FIG. 11).

[3] = tested on: LPS stimulated DCs characterized by CD11c+ MHC-II+; test: Co-stimulatory markers of LPS stimulated murine bone-marrow DCs; format: cell-based
Description: Rb9 immunomodulation of murine bone-marrow dendritic cells (DCs) was also examined focusing on co-stimulatory markers.

[4] = tested on: B16F10-Nex2 melanoma cells; test: Prophylactic adoptive transfer of peptide-stimulated dendritic cells, metastatic melanoma; format: in vivo, syngeneic mice; settings: DCs incubated with 50 μg/ml peptide, with or without tumor cell lysate; s.c.; tumor challenge day 14, count day 29
Experimental: DCs were obtained from the bone marrow of 6 to 8-week-old C57Bl6 mice. Briefly, femora and tibiae from mice were removed and stripped of muscles and tendons; both bone ends were cut, and bone marrow was extracted by placing the bone pieces into 1-ml tips, which in turn were inserted into 15-ml tubes and centrifuged for 10 minutes at 1500 rpm. Cells were resuspended in DMEM and cell clusters were dissociated by repeated pipetting. The total bone marrow cells were cultured in 100-mm treated tissue culture dish in 10 ml of R10 medium (DMEM medium supplemented with 2 mM glutamine, 10,000 U/ml penicillin, 10 mg/ml streptomycin, 50 μM 2-mercaptoethanol, 1 mM sodium pyruvate, MEM-nonessential aminoacids, MEM Vitamin solution, 10% heat-inactivated fetal bovine serum and GM-CSF (20 ng/ml) and IL-4 (40 ng/ml). Fresh medium (3 ml) with GM-CSF (200 ng/ml) and IL-4 (400 ng/ml) was added every 3 days. On day 7, adherent cells, that were harvested using PBS 2 mM EDTA, together with the non-adherent cells were pooled and used as the starting cell source for the experiments. BMDC Protocol 2
DCs were inoculated s.c. in syngeneic mice. On day 14, mice were inoculated i.v. with melanoma tumor cells (5×10^5 cells) and on day 29, the lung melanotic nodules were counted.

[5] = tested on: CD11c+ cells; test: TGF-beta1 ELISA of CD11c+ cells from lymphoid organs of melanoma-bearing treated mice; format: in vivo, C57Bl6 mice; settings: 300 μg/dose i.p., day 17
Experimental: Animals were sacrificed on day 17 and their lungs, cervical and axillary lymph nodes and spleen were processed for examination. Lymph nodes and spleen were macerated separately, DMEM was added and passed through a cell strainer. CD11c+ cells were isolated using mouse CD11c+ beads and magnetic sorting. Cells were suspended in R10 medium and plated in […] at 10^6 cells/well. Cells were incubated for 24 h with or without tumor cell lysate (B16F10 stimulus). The supernatant was used in a TGF-beta1 ELISA test.

[6] = tested on: T lymphocytes of lungs, spleen and lymph nodes; test: Flow cytometry of Treg, T-CD4+ and T-CD8+ cells after prophylactic DC protocol; format: in vivo, mice; settings: spleen and lymph nodes (except lungs), day 29, DCs stimulated by peptide
Experimental: On day 14, mice were inoculated i.v. with B16F10.Nex2 melanoma tumor cells and on day 29, lungs, spleen and cervical and axillary lymph nodes were examined for CD3+ cells, and the proportion of T-CD4+ and T-CD8+ cells.
The lungs were incubated with 2 mg/ml of collagenase for 40 min at 37° C. before maceration. The cell suspension was incubated with cold hemolytic buffer for 1 min and then centrifuged. The pellet was suspended with RPMI medium and counted. 1×10^6 Cells of each group were processed and stained using the Treg Detection Kit (Miltenyi Biotec, Cambridge, USA). Lymphocytes were characterized using anti-CD4 (FITC), anti-CD25 (PE) and anti-Foxp3 (APC). Samples were analyzed by flow cytometry using FACSCantoII (Becton Dickinson, San Jose, Calif., USA). Acquired data were analyzed using the FlowJo V10 (TreeStar Inc., Ashland, Oreg., USA). The percentages of Foxp3^+ in CD4^+CD25^+ lymphocytes are indicated.
The cell suspension was incubated with cold hemolytic buffer for 1 min and then centrifuged. The pellet was suspended with RPMI medium and counted. 1×10^6 Cells of each group were stained with anti-CD3 (PE) and anti-CD4 (FITC) or anti-CD3 (PE) and anti-CD8 (FITC). All antibodies used were purchase from Miltenyi Biotec, Cambridge, USA. Samples were analyzed by flow cytometry using FACSCantoII (Becton Dickinson, San Jose, Calif., USA). Acquired data were analyzed using the FlowJo V10 (TreeStar Inc., Ashland, Oreg., USA). The percentages of CD4^+ or CD8^+ in CD3^+ lymphocytes are indicated.

[7] = tested on: colorectal CT26 carcinoma cells; test: Subcutaneous syngeneic colorectal carcinoma model; format: in vivo, Balb/c mice
[8] = tested on: CD11c+, MHC II+ bone marrow DCs; test: Marker expression of bone marrow DCs with or without Poly I:C (flow cytometry); format: cell-based, C57Bl6 mice; settings: 60 h
Experimental: DCs were obtained from the bone marrow of 6 to 8-week-old C57Bl6 mice. Briefly, femora and tibiae from mice were removed and stripped of muscles and tendons; both bone ends were cut and bone marrow was flushed out with RPMI 1640 medium using a 21-gauge needle and syringe. Cell clusters were dissociated by passing through a cell strainer and 0.45 M ammonium chloride was added for red cell lysis. After washing the cell suspension twice in RPMI 1640, 10×10^6 bone marrow cells per well were cultured in non-treated tissue-culture 6-well plates with 4 ml of complete medium (RPMI 1640 supplemented with 2 mM glutamine, 10,000 U/mL penicillin, 10 mg/mL streptomycin, 50 μM 2-mercaptoethanol, 10% heat-inactivated fetal calf serum with GM-CSF (50 ng/ml). Half of the medium was removed on day 2 and new medium supplemented with GM-CSF (100 ng/ml) and warmed at 37° C. was added. The culture medium was entirely discarded on day 3 and replaced by fresh warmed medium with GM-CSF (50 ng/ml). On day 6, non-adherent cells in the culture supernatant and loosely adherent cells harvested by gentle washing with PBS were pooled and used as the starting cell source for the experiments.
For murine cell analysis, these were stained in ice-cold PBS containing BSA (0.5%) and EDTA (2 mM) using appropriate antibody-fluorophore conjugates. Multiparameter analysis was performed on a BD FACSCanto II analyzer (BD Biosciences) and analyzed with FlowJo software (Tree Star). The following antibodies were used: anti-MHC Class II, anti-CD11c, anti-CD8a, anti-CD3e, anti-CD4, anti-CD86, anti-CD40, anti-CD80, Prior to acquisition, cells were resuspended in PBS/BSA 0.5%/EDTA (2 mM).
DCs were centrifuged and washed once with MACS buffer. Cells (10^6) were resuspended in 45 μl of buffer and 5 μl of antibodies/fluorophore, CD11c APC, MHC II PE, CD80 FITC, CD86 VioBlue and CD40 PE. The samples were acquired in BD FACS Canto II using the FacsDiva software. The data were analyzed by using the FlowJo software.

[9] = 100 μg/ml peptide + 12.5 μg/ml Poly I:C

With `CC(C)Cn1cnc2c(N)nc3ccccc3c21` [Imiquimod, reference compound] the “antitumor activity (pulmonary nodules)” value ([1]; i.p., 15 days after challenge) was “Antitumor activities of Rb9 and Imiquimod were the same”.
For Poly I:C [reference compound], the “antitumor activity (pulmonary nodules)” value ([1]; i.p., 15 days after challenge) was “strongly active” and the “antitumor activity of Poly I:C combined with Rb9” value ([1]; i.p., 15 days after challenge) was “strongly active”.
[AARGETARATFAYWGQG], NH2 [Rb10A1] was tested, and the “cytokine production in splenocytes (generally)” value [2] was “downregulated”, the “IL-12 production in splenocytes” value ([2]; no stimulus necessary) was “comparable in the three groups” and the CD40 expression [3] was “regulated CD40 expression”. The “expression of CD80 and CD86” value ([3]; Rb9 mainly at 50 μg/ml) was “significantly stimulated”, the “protective effect of peptide-stimulated DCs (lung melanotic nodules)” value [4] was “also protective against melanoma in the metastatic model but less effectively than Rb9” and the “TGF-beta in tumor-lysate stimulated CD11c+ cells from the spleen” value [5] was “markedly inhibited”. The “TGF-beta secreted by lymph node CD11c+ cells” value ([5]; vs vehicle (PBS) control cells stimulated by melanoma lysate) was “fully inhibited” and the “proportion of T-CD8+ to T-CD4+ cells” value [6] was “T-CD8+ cells greatly predominated over T-CD4+ effector cells”.
With “[CAEATYWRRGGQAAGFTC], NH2 (C-C) (CAEATYWRRGGQAAGFTC-NH2; disulfide 1-18 (inferred)) [Scr1, cyclic scramble peptide of Rb9]” the “activity against metastatic melanoma of scramble peptides” value [1] was “activity similar to Rb9”.
With “[CARGETARATFAYWGQG], NH2 (CARGETARATFAYWGQG-NH2) [Rb10, linear peptide lacking terminal cysteine]” the subcutaneous tumor growth ([7]; CT26 cells of high virulence (Argentina cell line), 5 alternate days) was “delayed” and the survival time ([7]; CT26 cells of high virulence, H-2^d syngeneic animals) was “prolonging the survival time”.
With “[CETWRGAATRGAFQAYGC], NH2 (C-C) (CETWRGAATRGAFQAYGC-NH2; disulfide 1-18 (inferred)) [Scr3, cyclic scramble peptide of Rb9]” the “activity against metastatic melanoma of scramble peptides” value [1] was “good negative control”.
[RATFAYWG], NH2 [Rb9-MID] was tested, and the “CD40 expression over Poly I:C” value [8, 9] was “stimulated CD40 over Poly I:C much like Rb9”, the “expression of MHC II over Poly I:C and Rb9” value [8, 9] was “significantly increased” and the “expression of CD80” value ([8]; 100 μg/ml peptide, with or without Poly I:C) was “similar”.
